IC50 data for 20 compounds are collected here from patent publication US6420383B1, “Thiepino[3,2-b]dihydropyridines and related compositions and methods” (Ortho-McNeil Pharmaceutical, Inc., priority 2000, dated 2002).

In the experiment the target is T1, calcium channel (3H-nitrendipine binding, heart membranes) (Oryctolagus cuniculus, UniProt P15381).
T1 construct: from tissue; host or cells: rabbit heart membrane preparation
T1 sequence (P15381 whole entry, other chains not shown): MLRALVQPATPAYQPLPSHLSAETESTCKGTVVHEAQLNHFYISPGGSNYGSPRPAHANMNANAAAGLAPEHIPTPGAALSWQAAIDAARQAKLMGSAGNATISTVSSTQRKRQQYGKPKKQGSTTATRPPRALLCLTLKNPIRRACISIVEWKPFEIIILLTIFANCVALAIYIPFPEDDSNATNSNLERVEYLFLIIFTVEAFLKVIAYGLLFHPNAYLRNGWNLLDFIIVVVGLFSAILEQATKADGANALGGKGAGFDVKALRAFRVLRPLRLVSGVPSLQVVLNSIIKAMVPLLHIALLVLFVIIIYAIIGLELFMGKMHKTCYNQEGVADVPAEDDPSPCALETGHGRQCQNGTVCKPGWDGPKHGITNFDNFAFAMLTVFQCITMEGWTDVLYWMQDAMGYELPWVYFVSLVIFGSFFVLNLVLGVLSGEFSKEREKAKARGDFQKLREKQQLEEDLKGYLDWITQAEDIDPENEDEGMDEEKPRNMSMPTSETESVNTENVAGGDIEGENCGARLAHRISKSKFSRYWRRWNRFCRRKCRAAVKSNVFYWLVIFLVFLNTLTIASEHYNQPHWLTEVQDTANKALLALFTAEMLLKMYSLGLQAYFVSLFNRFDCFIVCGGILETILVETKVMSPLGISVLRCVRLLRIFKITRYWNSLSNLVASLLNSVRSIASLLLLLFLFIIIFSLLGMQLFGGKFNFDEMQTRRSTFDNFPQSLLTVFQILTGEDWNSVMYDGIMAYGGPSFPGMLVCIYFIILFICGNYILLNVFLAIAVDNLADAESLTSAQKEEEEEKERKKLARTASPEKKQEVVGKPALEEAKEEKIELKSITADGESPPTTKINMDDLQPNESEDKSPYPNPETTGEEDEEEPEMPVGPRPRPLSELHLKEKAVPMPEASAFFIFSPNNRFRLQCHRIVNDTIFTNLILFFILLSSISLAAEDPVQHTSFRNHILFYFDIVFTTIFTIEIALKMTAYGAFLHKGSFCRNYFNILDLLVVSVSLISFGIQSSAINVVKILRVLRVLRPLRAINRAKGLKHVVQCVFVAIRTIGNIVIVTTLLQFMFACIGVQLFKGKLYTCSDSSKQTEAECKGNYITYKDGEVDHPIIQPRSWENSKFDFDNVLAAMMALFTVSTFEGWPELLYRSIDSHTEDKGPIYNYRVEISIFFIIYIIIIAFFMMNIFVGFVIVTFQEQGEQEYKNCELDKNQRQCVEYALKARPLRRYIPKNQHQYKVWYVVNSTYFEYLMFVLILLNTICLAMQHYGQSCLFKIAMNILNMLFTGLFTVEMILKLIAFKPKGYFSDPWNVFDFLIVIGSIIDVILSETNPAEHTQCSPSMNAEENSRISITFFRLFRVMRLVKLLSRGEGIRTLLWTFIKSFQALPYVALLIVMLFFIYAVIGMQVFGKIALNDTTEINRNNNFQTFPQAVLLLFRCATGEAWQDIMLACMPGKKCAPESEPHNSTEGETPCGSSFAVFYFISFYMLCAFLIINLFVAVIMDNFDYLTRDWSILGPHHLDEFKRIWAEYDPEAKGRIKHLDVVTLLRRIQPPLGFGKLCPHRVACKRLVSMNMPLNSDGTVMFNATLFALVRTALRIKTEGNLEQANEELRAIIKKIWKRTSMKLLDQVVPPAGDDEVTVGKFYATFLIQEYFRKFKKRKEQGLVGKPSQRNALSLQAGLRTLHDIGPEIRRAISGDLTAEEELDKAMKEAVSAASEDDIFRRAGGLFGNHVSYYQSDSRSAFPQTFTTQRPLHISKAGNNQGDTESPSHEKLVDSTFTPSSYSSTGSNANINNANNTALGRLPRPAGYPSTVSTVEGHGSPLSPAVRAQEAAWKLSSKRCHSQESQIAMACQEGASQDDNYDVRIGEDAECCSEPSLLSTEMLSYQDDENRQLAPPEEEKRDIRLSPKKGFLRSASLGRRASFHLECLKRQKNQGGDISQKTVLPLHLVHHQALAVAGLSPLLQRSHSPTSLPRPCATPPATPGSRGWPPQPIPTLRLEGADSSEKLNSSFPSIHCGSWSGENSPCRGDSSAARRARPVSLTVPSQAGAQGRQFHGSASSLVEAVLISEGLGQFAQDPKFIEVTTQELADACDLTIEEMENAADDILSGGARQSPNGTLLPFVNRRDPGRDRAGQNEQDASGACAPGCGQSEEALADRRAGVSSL
T1 sequence (P13806 27-960 partner limits assumed, other chains not shown): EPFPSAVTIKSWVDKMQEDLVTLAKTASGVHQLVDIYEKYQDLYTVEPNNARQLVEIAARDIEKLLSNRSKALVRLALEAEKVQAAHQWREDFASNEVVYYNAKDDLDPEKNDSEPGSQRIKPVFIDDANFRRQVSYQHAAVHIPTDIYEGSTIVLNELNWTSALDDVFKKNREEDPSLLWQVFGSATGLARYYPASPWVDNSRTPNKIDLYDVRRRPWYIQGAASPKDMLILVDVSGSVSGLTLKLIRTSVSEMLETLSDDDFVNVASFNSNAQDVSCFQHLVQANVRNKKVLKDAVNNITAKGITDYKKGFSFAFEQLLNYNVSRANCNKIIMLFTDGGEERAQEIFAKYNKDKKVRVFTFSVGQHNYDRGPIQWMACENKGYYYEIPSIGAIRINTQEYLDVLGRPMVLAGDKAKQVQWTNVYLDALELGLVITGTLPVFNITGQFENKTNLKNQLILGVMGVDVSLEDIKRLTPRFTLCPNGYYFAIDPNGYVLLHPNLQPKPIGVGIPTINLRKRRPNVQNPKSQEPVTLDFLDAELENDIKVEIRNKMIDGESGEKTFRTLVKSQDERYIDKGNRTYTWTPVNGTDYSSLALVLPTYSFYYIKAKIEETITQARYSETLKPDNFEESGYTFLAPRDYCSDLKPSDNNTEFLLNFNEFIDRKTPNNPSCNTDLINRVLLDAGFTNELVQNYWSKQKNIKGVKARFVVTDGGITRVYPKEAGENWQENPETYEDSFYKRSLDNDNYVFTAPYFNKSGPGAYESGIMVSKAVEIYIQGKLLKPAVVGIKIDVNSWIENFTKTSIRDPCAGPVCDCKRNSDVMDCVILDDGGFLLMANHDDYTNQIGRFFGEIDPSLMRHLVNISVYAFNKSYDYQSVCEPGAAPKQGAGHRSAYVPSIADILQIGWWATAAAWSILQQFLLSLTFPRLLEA
T1 sequence (P13806 961-1106 partner limits assumed, other chains not shown): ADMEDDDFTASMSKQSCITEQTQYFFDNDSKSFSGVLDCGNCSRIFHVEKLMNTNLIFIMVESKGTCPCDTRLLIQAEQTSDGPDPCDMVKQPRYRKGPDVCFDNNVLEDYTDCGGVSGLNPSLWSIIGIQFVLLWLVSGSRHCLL
Description: Assay for inhibition of nitrendipine binding (calcium channel antagonist activity). Conditions: 3H-nitrendipine 0.05-0.50 nM, rabbit heart membranes, 90 minutes at 4° C. On the procedure: Female, New Zealand white rabbits (1-2 kg) are sacrificed by cervical dislocation, and the heart is immediately removed, cleaned and chopped into small pieces. The tissue is homogenized in 5×times volume of 0.05M Hepes buffer, pH 7.4. The homogenate is centrifuged at 4000 g for 10 minutes, and the supernatant is re-centrifuged at 42,000×g for 90 minutes. The resulting membrane pellet is re-suspended (0.7 ml/g weight) in 0.05M Hepes, pH 7.4 and stored at […] until used. Each tube of the binding assay contains ^3H-nitrendipine (0.05-0.50 nM), buffer, membranes (0.10 ml), and test compound in a total volume of 1.0 ml. After 90 minutes at 4° C., the bound nitrendipine is separated from the unbound by filtration on Whatman GF/C filters. After rinsing, the filters are dried and counted in a liquid scintillation counter.
Non-specific binding of ^3H-nitrendipine (that amount bound in the presence of excess unlabelled nitrendipine) is subtracted from the total bound to obtain specifically bound radiolabeled nitrendipine. The amount of specifically bound nitrendipine in the presence of a test compound is compared to that amount bound in the absence of a compound. A percent displacement (or inhibition) can then be calculated.
Consider `CC1=C(C(=O)OCCN(C)Cc2cccs2)C(c2ccccc2Cl)C2=C(CCCCS2(=O)=O)N1` (centres unmarked) [Compound 14, Thiepino[3,2-b]pyridine-3-carboxylic acid, 4-(2-chlorophenyl)-1,4,6,7,8,9-hexahydro-2-methyl-, 2-[methyl(2-thienylmethyl)amino]ethyl ester, 5,5-dioxide], for which the half-maximal inhibitory concentration (IC50) was determined as 15 nM.
For `CC1=C(C(=O)OCCN(C)Cc2cccs2)C(c2c(F)c(F)c(F)c(F)c2F)C2=C(CCCCS2(=O)=O)N1` (centres unmarked) [Compound 12, Thiepino[3,2-b]pyridine-3-carboxylic acid, 1,4,6,7,8,9-hexahydro-2-methyl-4-(2,3,4,5,6-pentafluorophenyl)-, 2-[methyl(2-thienylmethyl)amino]ethyl ester, 5,5-dioxide], the 50% inhibitory concentration (IC50) came out at 5.9 nM.
On to `CCOC(=O)C1=C(c2cccs2)NC2=C(C1c1cccc(Cl)c1)S(=O)(=O)CCCC2` (centres unmarked) [Compound 16, Thiepino[3,2-b]pyridine-3-carboxylic acid, 4-(3-chlorophenyl)-1,4,6,7,8,9-hexahydro-2-(2-thienyl)-, ethyl ester, 5,5-dioxide], for which the 50% inhibitory concentration (IC50) stood at 2300 nM.
The figure for `CCOC(=O)C1=C(c2cccs2)NC2=C(C1c1cccc([N+](=O)[O-])c1)S(=O)(=O)CCCC2` (centres unmarked) [Compound 20, Thiepino[3,2-b]pyridine-3-carboxylic acid, 1,4,6,7,8,9-hexahydro-4-(3-nitrophenyl)-2-(2-thienyl)-, ethyl ester, 5,5-dioxide] is 6540 nM; for `CCOC(=O)C1=C(c2cccnc2)NC2=C(C1c1cccc(Cl)c1)S(=O)(=O)CCCC2` (centres unmarked) [Compound 22, Thiepino[3,2-b]pyridine-3-carboxylic acid, 4-(3-chlorophenyl)-1,4,6,7,8,9-hexahydro-2-(3-pyridinyl)-, ethyl ester, 5,5-dioxide] it is 2000 nM; for `CCOC(=O)C1=C(c2ccccc2)NC2=C(C1c1ccc(Cl)cc1)S(=O)(=O)CCCC2` (centres unmarked) [Compound 1, Thiepino[3,2-b]pyridine-3-carboxylic acid, 4-(4-chlorophenyl)-1,4,6,7,8,9-hexahydro-2-phenyl-, ethyl ester, 5,5-dioxide] it is 2000 nM.
`CC1=C(C(=O)OCCN(C)Cc2cccs2)C(c2c(F)cccc2Cl)C2=C(CCCCS2(=O)=O)N1` (centres unmarked) [Compound 9, Thiepino[3,2-b]pyridine-3-carboxylic acid, 4-(2-chloro-6-fluorophenyl)-1,4,6,7,8,9-hexahydro-2-methyl-, 2-[methyl(2-thienylmethyl)amino]ethyl ester, 5,5-dioxide]: the 50% inhibitory concentration (IC50) was determined as 29.5 nM.
The figure for `CC1=C(C(=O)OCCN(C)Cc2cccs2)C(c2cccc([N+](=O)[O-])c2)C2=C(CCCCS2(=O)=O)N1` (centres unmarked) [Compound 13, Thiepino[3,2-b]pyridine-3-carboxylic acid, 1,4,6,7,8,9-hexahydro-2-methyl-4-(3-nitrophenyl)-, 2-[methyl(2-thienylmethyl)amino]ethyl ester, 5,5-dioxide] is 7.1 nM; for `CCOC(=O)C1=C(c2ccccc2)NC2=C(C1c1c(F)c(F)c(F)c(F)c1F)S(=O)(=O)CCCC2` (centres unmarked) [Compound 10, Thiepino[3,2-b]pyridine-3-carboxylic acid, 1,4,6,7,8,9-hexahydro-4-(2,3,4,5,6-pentafluorophenyl)-2-phenyl-, ethyl ester, 5,5-dioxide] it is 684 nM.
As to `CC1=C(C(=O)OCCN(C)Cc2ccsc2)C(c2c(O)cccc2Cl)C2=C(CCCCS2(=O)=O)N1` (centres unmarked) [Compound 25, Thiepino[3,2-b]pyridine-3-carboxylic acid, 4-(2-chloro-6-hydroxyphenyl)-1,4,6,7,8,9-hexahydro-2-methyl-, 2-[methyl(3-thienylmethyl)amino]ethyl ester, 5,5-dioxide], the IC50 came out at 815 nM.
For `CN(CCOC(=O)C1=C(c2ccccc2)NC2=C(C1c1cccc([N+](=O)[O-])c1)S(=O)(=O)CCCC2)Cc1cccs1` (centres unmarked) [Compound 18, Thiepino[3,2-b]pyridine-3-carboxylic acid, 1,4,6,7,8,9-hexahydro-4-(3-nitrophenyl)-2-phenyl-, 2-[methyl(2-thienylmethyl)amino]ethyl ester, 5,5-dioxide] the value was 26000 nM.
The figure for `CCOC(=O)C1=C(c2cccs2)NC2=C(C1c1ccccc1Cl)S(=O)(=O)CCCC2` (centres unmarked) [Compound 15, Thiepino[3,2-b]pyridine-3-carboxylic acid, 4-(2-chlorophenyl)-1,4,6,7,8,9-hexahydro-2-(2-thienyl)-, ethyl ester, 5,5-dioxide] is 2500 nM.
On to `CC1=C(C(=O)OCCN(C)Cc2ccsc2)C(c2ccccc2Cl)C2=C(CCCCS2(=O)=O)N1` (centres unmarked) [Compound 24, Thiepino[3,2-b]pyridine-3-carboxylic acid, 4-(2-chlorophenyl)-1,4,6,7,8,9-hexahydro-2-methyl-, 2-[methyl(3-thienylmethyl)amino]ethyl ester, 5,5-dioxide], for which the IC50 is 149 nM.
`CN(CCOC(=O)C1=C(c2ccccc2)NC2=C(C1c1ccccc1Cl)S(=O)(=O)CCCC2)Cc1cccs1` (centres unmarked) [Compound 17, Thiepino[3,2-b]pyridine-3-carboxylic acid, 4-(2-chlorophenyl)-1,4,6,7,8,9-hexahydro-2-phenyl-, 2-[methyl(2-thienylmethyl)amino]ethyl ester, 5,5-dioxide]: the half-maximal inhibitory concentration (IC50) amounted to 500 nM.
For `CN(CCOC(=O)C1=C(c2ccccc2)NC2=C(C1c1cccc(Cl)c1)S(=O)(=O)CCCC2)Cc1ccccc1` (centres unmarked) [Compound 4, Thiepino[3,2-b]pyridine-3-carboxylic acid, 4-(3-chlorophenyl)-1,4,6,7,8,9-hexahydro-2-phenyl-, 2-[methyl(phenylmethyl)amino]ethyl ester, 5,5-dioxide] the value was 192 nM; for `CN(CCOC(=O)C1=C(c2ccccc2)NC2=C(C1c1c(O)cccc1Cl)S(=O)(=O)CCCC2)Cc1ccccc1` (centres unmarked) [Compound 5, Thiepino[3,2-b]pyridine-3-carboxylic acid, 4-(2-chloro-6-hydroxyphenyl)-1,4,6,7,8,9-hexahydro-2-phenyl-, 2-[methyl(phenylmethyl)amino]ethyl ester, 5,5-dioxide], 2000 nM; for `CN(CCOC(=O)C1=C(c2ccccc2)NC2=C(C1c1ccccc1Cl)S(=O)(=O)CCCC2)Cc1ccccc1` (centres unmarked) [Compound 6, Thiepino[3,2-b]pyridine-3-carboxylic acid, 4-(2-chlorophenyl)-1,4,6,7,8,9-hexahydro-2-phenyl-, 2-[methyl(phenylmethyl)amino]ethyl ester, 5,5-dioxide], 312 nM.
For `CC1=C(C(=O)OCCN(C)Cc2ccsc2)C(c2cccc([N+](=O)[O-])c2)C2=C(CCCCS2(=O)=O)N1` (centres unmarked) [Compound 26, Thiepino[3,2-b]pyridine-3-carboxylic acid, 1,4,6,7,8,9-hexahydro-2-methyl-4-(3-nitrophenyl)-, 2-[methyl(3-thienylmethyl)amino]ethyl ester, 5,5-dioxide] the value was 51 nM.
For `CCOC(=O)C1=C(c2cccnc2)NC2=C(C1c1ccccc1Cl)S(=O)(=O)CCCC2` (centres unmarked) [Compound 21, Thiepino[3,2-b]pyridine-3-carboxylic acid, 4-(2-chlorophenyl)-1,4,6,7,8,9-hexahydro-2-(3-pyridinyl)-, ethyl ester, 5,5-dioxide] the value was 2000 nM.
Regarding `COC(=O)C1=C(c2ccccc2)NC2=C(C1c1cccc(Cl)c1)S(=O)(=O)CCCC2` (centres unmarked) [Compound 3, Thiepino[3,2-b]pyridine-3-carboxylic acid, 4-(3-chlorophenyl)-1,4,6,7,8,9-hexahydro-2-phenyl-, methyl ester, 5,5-dioxide], the IC50 was determined as 2000 nM.
